Results reported in the supplement of paper PMC10307832.

Columns and labels:
Assay in all cases: relative viability (nuclei count vs DMSO), 5 days (fraction); higher = more cells survive
[1] = tested on: A-427
Outline: (§1)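 Relative viability is defined as nuclei in treated wells over nuclei in vehicle wells. Duplicate plates were run and medians reported. Lung cancer cell lines in 1536-well plates were dosed by pin tool one day after seeding, with one drug or with a fixed anchor-drug dose plus five library-drug doses (not always all listed) in √10 steps, and nuclei were counted after 5 days.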

[2] = tested on: A549
Outline: as §1

[3] = tested on: CAL-12T
Outline: as §1

[4] = tested on: Calu-6
Outline: as §1

[5] = tested on: EBC-1
Outline: as §1

[6] = tested on: IA-LM
Outline: as §1

[7] = tested on: LK-2
Outline: as §1

[8] = tested on: NCI-H1299
Outline: as §1

[9] = tested on: NCI-H1651
Outline: as §1

[10] = tested on: NCI-H1703
Outline: as §1

[11] = tested on: NCI-H1755
Outline: as §1

CN1CCN(CCOc2cc(OC3CCOCC3)c3c(Nc4c(Cl)ccc5c4OCO5)ncnc3c2)CC1 [Saracatinib] + Cc1nc(NC(=O)N2CCC[C@H]2C(N)=O)sc1-c1ccnc(C(C)(C)C(F)(F)F)c1 [Alpelisib] (partner 2 µM)
relative viability ([1]; first compound 0.02 µM): 1.09
relative viability ([1]; first compound 0.2 µM): 0.916
relative viability ([1]; first compound 0.6325 µM): 1.07
relative viability ([1]; first compound 2 µM): 1.01
relative viability ([2]; first compound 0.02 µM): 0.799
relative viability ([2]; first compound 0.2 µM): 0.718
relative viability ([2]; first compound 0.6325 µM): 0.861
relative viability ([2]; first compound 2 µM): 0.5
relative viability ([3]; first compound 0.02 µM): 1.28
relative viability ([3]; first compound 0.2 µM): 1.06
relative viability ([3]; first compound 0.6325 µM): 1.33
relative viability ([3]; first compound 2 µM): 0.927
relative viability ([4]; first compound 0.02 µM): 1.02
relative viability ([4]; first compound 0.2 µM): 0.683
relative viability ([4]; first compound 0.6325 µM): 0.721
relative viability ([4]; first compound 2 µM): 0.76
relative viability ([5]; first compound 0.02 µM): 0.929
relative viability ([5]; first compound 0.2 µM): 0.764
relative viability ([5]; first compound 0.6325 µM): 0.898
relative viability ([5]; first compound 2 µM): 0.906
relative viability ([6]; first compound 0.02 µM): 0.93
relative viability ([6]; first compound 0.6325 µM): 1.44
relative viability ([6]; first compound 2 µM): 0.958
relative viability ([7]; first compound 0.02 µM): 0.956
relative viability ([7]; first compound 0.2 µM): 0.851
relative viability ([7]; first compound 0.6325 µM): 1.02
relative viability ([7]; first compound 2 µM): 0.531
relative viability ([8]; first compound 0.02 µM): 1.08
relative viability ([8]; first compound 0.2 µM): 1.02
relative viability ([8]; first compound 0.6325 µM): 1.14
relative viability ([8]; first compound 2 µM): 1.1
relative viability ([9]; first compound 0.02 µM): 1.02
relative viability ([9]; first compound 0.2 µM): 0.729
relative viability ([9]; first compound 0.6325 µM): 0.913
relative viability ([9]; first compound 2 µM): 0.804
relative viability ([10]; first compound 0.02 µM): 0.321
relative viability ([10]; first compound 0.2 µM): 0.243
relative viability ([10]; first compound 0.6325 µM): 0.189
relative viability ([10]; first compound 2 µM): 0.184
relative viability ([11]; first compound 0.02 µM): 0.928
relative viability ([11]; first compound 0.2 µM): 0.709
relative viability ([11]; first compound 0.6325 µM): 0.864
relative viability ([11]; first compound 2 µM): 0.712

CN1CCN(CCOc2cc(OC3CCOCC3)c3c(Nc4c(Cl)ccc5c4OCO5)ncnc3c2)CC1 [Saracatinib] + CC1(C)CCC(c2ccc(Cl)cc2)=C(CN2CCN(c3ccc(C(=O)NS(=O)(=O)c4ccc(N[C@H](CCN5CCOCC5)CSc5ccccc5)c(S(=O)(=O)C(F)(F)F)c4)cc3)CC2)C1 [Navitoclax] (partner 0.5 µM)
relative viability ([1]; first compound 0.02 µM): 0.999
relative viability ([1]; first compound 0.2 µM): 0.854
relative viability ([1]; first compound 0.6325 µM): 1
relative viability ([1]; first compound 2 µM): 0.918
relative viability ([2]; first compound 0.02 µM): 1.42
relative viability ([2]; first compound 0.2 µM): 0.903
relative viability ([2]; first compound 0.6325 µM): 1.39
relative viability ([2]; first compound 2 µM): 1.38
relative viability ([3]; first compound 0.02 µM): 1.17
relative viability ([3]; first compound 0.2 µM): 1.29
relative viability ([3]; first compound 0.6325 µM): 1.42
relative viability ([3]; first compound 2 µM): 1.27
relative viability ([4]; first compound 0.02 µM): 0.914
relative viability ([4]; first compound 0.2 µM): 0.746
relative viability ([4]; first compound 0.6325 µM): 0.731
relative viability ([4]; first compound 2 µM): 0.562
relative viability ([5]; first compound 0.02 µM): 0.542
relative viability ([5]; first compound 0.2 µM): 0.408
relative viability ([5]; first compound 0.6325 µM): 0.393
relative viability ([5]; first compound 2 µM): 0.43
relative viability ([6]; first compound 0.02 µM): 0.865
relative viability ([6]; first compound 0.6325 µM): 1.45
relative viability ([6]; first compound 2 µM): 1
relative viability ([7]; first compound 0.02 µM): 0.795
relative viability ([7]; first compound 0.2 µM): 0.781
relative viability ([7]; first compound 0.6325 µM): 0.71
relative viability ([7]; first compound 2 µM): 0.489
relative viability ([8]; first compound 0.02 µM): 1.01
relative viability ([8]; first compound 0.2 µM): 1.06
relative viability ([8]; first compound 0.6325 µM): 1.04
relative viability ([8]; first compound 2 µM): 1.04
relative viability ([9]; first compound 0.02 µM): 1.06
relative viability ([9]; first compound 0.2 µM): 0.681
relative viability ([9]; first compound 0.6325 µM): 0.998
relative viability ([9]; first compound 2 µM): 1.03
relative viability ([10]; first compound 0.02 µM): 1.09
relative viability ([10]; first compound 0.2 µM): 0.904
relative viability ([10]; first compound 0.6325 µM): 0.43
relative viability ([10]; first compound 2 µM): 0.269
relative viability ([11]; first compound 0.02 µM): 0.981
relative viability ([11]; first compound 0.2 µM): 0.681
relative viability ([11]; first compound 0.6325 µM): 0.874
relative viability ([11]; first compound 2 µM): 0.588

CCNC(=O)c1noc(-c2cc(C(C)C)c(O)cc2O)c1-c1ccc(CN2CCOCC2)cc1 [Luminespib] + CC(C)C[C@H](NC(=O)[C@H](Cc1ccccc1)NC(=O)c1cnccn1)B(O)O [Bortezomib] (partner 0.002 µM)
relative viability ([1]; first compound 0.002 µM): 1.04
relative viability ([1]; first compound 0.006325 µM): 0.926
relative viability ([1]; first compound 0.02 µM): 0.811
relative viability ([1]; first compound 0.06325 µM): 0.94
relative viability ([1]; first compound 0.2 µM): 0.584
relative viability ([3]; first compound 0.002 µM): 1.04
relative viability ([3]; first compound 0.006325 µM): 0.929
relative viability ([3]; first compound 0.02 µM): 0.539
relative viability ([3]; first compound 0.06325 µM): 0.147
relative viability ([3]; first compound 0.2 µM): 0.149
relative viability ([4]; first compound 0.002 µM): 1.06
relative viability ([4]; first compound 0.006325 µM): 0.883
relative viability ([4]; first compound 0.02 µM): 1.21
relative viability ([4]; first compound 0.06325 µM): 0.141
relative viability ([4]; first compound 0.2 µM): 0.159
relative viability ([5]; first compound 0.002 µM): 0.583
relative viability ([5]; first compound 0.006325 µM): 0.541
relative viability ([5]; first compound 0.02 µM): 0.318
relative viability ([5]; first compound 0.06325 µM): 0.118
relative viability ([5]; first compound 0.2 µM): 0.169
relative viability ([6]; first compound 0.002 µM): 0.819
relative viability ([6]; first compound 0.006325 µM): 0.951
relative viability ([6]; first compound 0.02 µM): 0.648
relative viability ([6]; first compound 0.06325 µM): 0.067
relative viability ([6]; first compound 0.2 µM): 0.0656
relative viability ([8]; first compound 0.002 µM): 1.01
relative viability ([8]; first compound 0.006325 µM): 0.999
relative viability ([8]; first compound 0.02 µM): 1.04
relative viability ([8]; first compound 0.06325 µM): 0.946
relative viability ([8]; first compound 0.2 µM): 0.248
relative viability ([9]; first compound 0.002 µM): 0.947
relative viability ([9]; first compound 0.006325 µM): 0.864
relative viability ([9]; first compound 0.02 µM): 0.91
relative viability ([9]; first compound 0.06325 µM): 0.89
relative viability ([9]; first compound 0.2 µM): 0.793
relative viability ([10]; first compound 0.002 µM): 0.494
relative viability ([10]; first compound 0.006325 µM): 0.415
relative viability ([10]; first compound 0.02 µM): 0.224
relative viability ([10]; first compound 0.06325 µM): 0.13
relative viability ([10]; first compound 0.2 µM): 0.14
relative viability ([11]; first compound 0.002 µM): 0.992
relative viability ([11]; first compound 0.006325 µM): 0.909
relative viability ([11]; first compound 0.02 µM): 0.954
relative viability ([11]; first compound 0.06325 µM): 0.528
relative viability ([11]; first compound 0.2 µM): 0.169
